# According to ChEMBL document CHEMBL1201862, “PubChem BioAssay data set” (2004):
#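 Step 1: Grow cells in 96-well plates. Step 2: Expose to compound for 48 hours at 5 concentrations. Step 3: Interpolate endpoints linearly; if unreached, use highest concentration. The concentration for 50% growth inhibition is given as GI50.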 Calls of active or inactive are those of the source. Rule as the data show it: active = GI50 up to about 1.1 µM and inactive = higher.
# Tests used:
# Assay in all cases: inhibition of tumour cell growth, NCI panel, 48 h
# SF-268 = test system: SF-268
# KM12 = test system: KM12
# DLD-1 = test system: DLD-1
# NCI-H226 = test system: NCI-H226
# EKVX = test system: EKVX
# UACC-62 = test system: UACC-62
# NCI-H522 = test system: NCI-H522
# HOP-18 = test system: HOP-18
# HCT-15 = test system: HCT-15
# RPMI-8226 = test system: RPMI-8226
# NCI-H460 = test system: NCI-H460
# SK-MEL-2 = test system: SK-MEL-2
# IGROV-1 = test system: IGROV-1
# SNB-78 = test system: SNB-78
# OVCAR-4 = test system: OVCAR-4
# SK-MEL-5 = test system: SK-MEL-5
# OVCAR-8 = test system: OVCAR-8
# HCC 2998 = test system: HCC 2998
# SNB-19 = test system: SNB-19
# HT-29 = test system: HT-29
# Malme-3M = test system: Malme-3M
# DMS-273 = test system: DMS-273
# U-251 = test system: U-251
# M19-MEL = test system: M19-MEL
# MOLT-4 = test system: MOLT-4
# CCRF-CEM = test system: CCRF-CEM
# DMS-114 = test system: DMS-114
# OVCAR-3 = test system: OVCAR-3
# KM-20L2 = test system: KM-20L2
# 786-0 = test system: 786-0
# HOP-92 = test system: HOP-92
# COLO 205 = test system: COLO 205
# LXFL 529 = test system: LXFL 529
# SW-620 = test system: SW-620
# HOP-62 = test system: HOP-62
# SNB-75 = test system: SNB-75
# NCI-H23 = test system: NCI-H23
# UO-31 = test system: UO-31
# SN12C = test system: SN12C
# SR = test system: SR
# SF-539 = test system: SF-539
# UACC-257 = test system: UACC-257
# OVCAR-5 = test system: OVCAR-5
# SK-OV-3 = test system: SK-OV-3
# SK-MEL-28 = test system: SK-MEL-28
# RXF 393 = test system: RXF 393
# A549 = test system: A549
# SF-295 = test system: SF-295
# HL-60 = test system: HL-60
# M14 = test system: M14
# HCT-116 = test system: HCT-116
# ACHN = test system: ACHN
# K562 = test system: K562
# TK-10 = test system: TK-10
# XF498 = test system: XF498
# LOX IMVI = test system: LOX IMVI
# CAKI-1 = test system: CAKI-1
# A498 = test system: A498
smiles,measurement,setting,value
Cc1ccc(NC(=O)CC(=O)N2N=C(N(CCC#N)c3cccc(C)c3)CC2c2ccccc2)cc1 (stereo not drawn),GI50,SF-268,> 100 µM (inactive)
same,GI50,KM12,> 100 µM (inactive)
same,GI50,DLD-1,> 100 µM (inactive)
same,GI50,NCI-H226,> 100 µM (inactive)
same,GI50,EKVX,5.97 µM (inactive)
same,GI50,UACC-62,> 100 µM (inactive)
same,GI50,NCI-H522,> 100 µM (inactive)
same,GI50,HOP-18,> 100 µM (inactive)
same,GI50,HCT-15,> 100 µM
same,GI50,RPMI-8226,> 100 µM (inactive)
same,GI50,NCI-H460,> 100 µM (inactive)
same,GI50,SK-MEL-2,> 100 µM (inactive)
same,GI50,IGROV-1,> 100 µM (inactive)
same,GI50,SNB-78,> 100 µM (inactive)
same,GI50,OVCAR-4,> 100 µM (inactive)
same,GI50,SK-MEL-5,> 100 µM (inactive)
same,GI50,OVCAR-8,> 100 µM (inactive)
same,GI50,HCC 2998,> 100 µM (inactive)
same,GI50,SNB-19,> 100 µM (inactive)
same,GI50,HT-29,> 100 µM (inactive)
same,GI50,Malme-3M,> 100 µM (inactive)
same,GI50,DMS-273,> 100 µM (inactive)
same,GI50,U-251,> 100 µM (inactive)
same,GI50,M19-MEL,> 100 µM (inactive)
same,GI50,MOLT-4,> 100 µM (inactive)
same,GI50,CCRF-CEM,> 100 µM (inactive)
same,GI50,DMS-114,> 100 µM (inactive)
same,GI50,OVCAR-3,> 100 µM (inactive)
same,GI50,KM-20L2,> 100 µM (inactive)
same,GI50,786-0,> 100 µM (inactive)
same,GI50,HOP-92,> 100 µM (inactive)
same,GI50,COLO 205,> 100 µM (inactive)
same,GI50,LXFL 529,> 100 µM (inactive)
same,GI50,SW-620,> 100 µM (inactive)
same,GI50,HOP-62,> 100 µM (inactive)
same,GI50,SNB-75,> 100 µM (inactive)
same,GI50,NCI-H23,> 100 µM (inactive)
same,GI50,UO-31,> 100 µM (inactive)
same,GI50,SN12C,> 100 µM (inactive)
same,GI50,SR,> 100 µM (inactive)
same,GI50,SF-539,> 100 µM (inactive)
same,GI50,UACC-257,> 100 µM (inactive)
same,GI50,OVCAR-5,> 100 µM (inactive)
same,GI50,SK-OV-3,> 100 µM (inactive)
same,GI50,SK-MEL-28,> 100 µM (inactive)
same,GI50,RXF 393,> 100 µM (inactive)
same,GI50,A549,> 100 µM (inactive)
same,GI50,SF-295,> 100 µM (inactive)
same,GI50,HL-60,> 100 µM (inactive)
same,GI50,M14,> 100 µM (inactive)
same,GI50,HCT-116,> 100 µM (inactive)
same,GI50,ACHN,> 100 µM (inactive)
same,GI50,K562,> 100 µM (inactive)
COc1cc(C)cc2c1[nH]c1ccccc12 [MURRAYAFOLINE A],GI50,TK-10,> 25 µM (inactive)
same,GI50,RPMI-8226,8.65 µM (inactive)
same,GI50,SNB-78,> 25 µM (inactive)
same,GI50,OVCAR-4,> 25 µM (inactive)
same,GI50,OVCAR-8,7.33 µM (inactive)
same,GI50,SNB-19,> 25 µM (inactive)
same,GI50,DMS-114,9.64 µM (inactive)
same,GI50,OVCAR-3,8.91 µM (inactive)
same,GI50,HOP-62,6.53 µM (inactive)
same,GI50,OVCAR-5,24.5 µM (inactive)
same,GI50,RXF 393,9.16 µM (inactive)
same,GI50,A549,11.5 µM (inactive)
same,GI50,K562,> 25 µM (inactive)
Cn1c(=O)nc2n(-c3cc(C(F)(F)F)cc(C(F)(F)F)c3)c3ccccc3nc-2c1=O,GI50,SF-268,> 100 µM (inactive)
same,GI50,KM12,> 100 µM (inactive)
same,GI50,NCI-H226,> 100 µM (inactive)
same,GI50,EKVX,> 100 µM (inactive)
same,GI50,HCT-15,> 100 µM
same,GI50,TK-10,> 100 µM (inactive)
same,GI50,RPMI-8226,> 100 µM (inactive)
same,GI50,NCI-H460,> 100 µM (inactive)
same,GI50,SK-MEL-2,> 100 µM (inactive)
same,GI50,IGROV-1,> 100 µM (inactive)
same,GI50,SNB-78,> 100 µM (inactive)
same,GI50,OVCAR-4,40.3 µM (inactive)
same,GI50,SK-MEL-5,8.18 µM (inactive)
same,GI50,OVCAR-8,> 100 µM (inactive)
same,GI50,HCC 2998,> 100 µM (inactive)
same,GI50,SNB-19,49 µM (inactive)
same,GI50,XF498,> 100 µM (inactive)
same,GI50,HT-29,> 100 µM (inactive)
same,GI50,LOX IMVI,> 100 µM (inactive)
same,GI50,Malme-3M,> 100 µM (inactive)
same,GI50,DMS-273,45.7 µM (inactive)
same,GI50,U-251,> 100 µM (inactive)
same,GI50,M19-MEL,13.8 µM (inactive)
same,GI50,MOLT-4,> 100 µM (inactive)
same,GI50,DMS-114,26.3 µM (inactive)
same,GI50,OVCAR-3,64.7 µM (inactive)
same,GI50,KM-20L2,> 100 µM (inactive)
same,GI50,786-0,> 100 µM (inactive)
same,GI50,HOP-92,45.1 µM (inactive)
same,GI50,COLO 205,> 100 µM (inactive)
same,GI50,SW-620,> 100 µM (inactive)
same,GI50,HOP-62,> 100 µM (inactive)
same,GI50,SNB-75,18.8 µM (inactive)
same,GI50,NCI-H23,> 100 µM (inactive)
same,GI50,UO-31,> 100 µM (inactive)
same,GI50,SN12C,> 100 µM (inactive)
same,GI50,SR,> 100 µM (inactive)
same,GI50,CAKI-1,> 100 µM (inactive)
same,GI50,SF-539,> 100 µM (inactive)
same,GI50,UACC-257,> 100 µM (inactive)
same,GI50,OVCAR-5,> 100 µM (inactive)
same,GI50,SK-OV-3,> 100 µM (inactive)
same,GI50,SK-MEL-28,> 100 µM (inactive)
same,GI50,RXF 393,75.7 µM (inactive)
same,GI50,A549,> 100 µM (inactive)
same,GI50,SF-295,52.1 µM (inactive)
same,GI50,HL-60,> 100 µM (inactive)
same,GI50,M14,> 100 µM (inactive)
same,GI50,HCT-116,> 100 µM (inactive)
same,GI50,A498,> 100 µM (inactive)
same,GI50,ACHN,75.3 µM (inactive)
same,GI50,K562,> 100 µM (inactive)
